Each structure is given as a SMILES string.

The source of these data is ChEMBL document CHEMBL1151563, “Synthesis of sialic acid-lipid conjugates and their neuritogenic effects on N1E.115 neuroblastoma cells” (1995).

For experiment [1], the system named is N1E-115. As to the kind of experiment: Effect of compound on neurite outgrowth by measuring presence of cytoskeletal component in neurofilament (NF) ELISA assay at 1 uM; value ranges from 95-105. Format: functional, Mus musculus.
Experiment [2] has as its system N1E-115. As to the kind of experiment: Effect of compound on neurite outgrowth by measuring presence of cytoskeletal component in neurofilament (NF) ELISA assay at 3 uM; value ranges from 95-105. It counts as functional, Mus musculus. A general note: In an ELISA, binding on a coated surface is turned into a signal by an enzyme label.
The test system of experiment [3] is N1E-115. Briefly: In neutral red (NR) assay the cell number relative to control was determined at 3 uM; value ranges from 75-85. Format: functional, Mus musculus.
For experiment [4], the system named is N1E-115. Briefly: Neuritogenic activity of compound was determined at 1 uM; value ranges from 105-115. It counts as functional, Mus musculus.
The subject of experiment [5] is N1E-115. Briefly: Neuritogenic activity of compound was determined at 3 uM; value ranges from 125-135. It counts as functional, Mus musculus.
Experiment [6] in a line: NF/NR ratio is average amount of neurofilament per cell was determined at 1 uM; value ranges from 105-115. Format: functional.
A short description of experiment [7]: NF/NR ratio is average amount of neurofilament per cell was determined at 3 uM; value ranges from 125-135. Format: functional.
In experiment [8] the test system is N1E-115. As to the kind of experiment: Effect of compound on neurite outgrowth by measuring presence of cytoskeletal component in neurofilament (NF) ELISA assay at 3 uM; value ranges from 75-85. Format: functional, Mus musculus.
Experiment [9] concerns N1E-115. As to the kind of experiment: In neutral red (NR) assay the cell number relative to control was determined at 1 uM; value ranges from 95-105. Format: functional, Mus musculus.
For experiment [10], the system named is N1E-115. As to the kind of experiment: In neutral red (NR) assay the cell number relative to control was determined at 3 uM; value ranges from 65-75. Format: functional, Mus musculus.
For experiment [11], the system named is N1E-115. As to the kind of experiment: Neuritogenic activity of compound was determined at 1 uM; value ranges from 95-105. Format: functional, Mus musculus.
Experiment [12] has as its system N1E-115. Briefly: Neuritogenic activity of compound was determined at 3 uM; value ranges from 105-115. Format: functional, Mus musculus.
The nature of experiment [13]: NF/NR ratio is average amount of neurofilament per cell was determined at 1 uM; value ranges from 95-105. It counts as functional.
The nature of experiment [14]: NF/NR ratio is average amount of neurofilament per cell was determined at 3 uM; value ranges from 105-115. It counts as functional.
The test system of experiment [15] is N1E-115. Briefly: In neutral red (NR) assay the cell number relative to control was determined at 1 uM; value ranges from 75-85. It counts as functional, Mus musculus.
Experiment [16] has as its system N1E-115. As to the kind of experiment: Neuritogenic activity of compound was determined at 3 uM; value ranges from 115-125. It counts as functional, Mus musculus.
Experiment [17] in a line: NF/NR ratio is average amount of neurofilament per cell was determined at 3 uM; value ranges from 115-125. Format: functional.
Experiment [18] deals with N1E-115. Briefly: Neuritogenic activity of compound was determined at 3 uM; value ranges from 95-105. Format: functional, Mus musculus.
Experiment [19] can be described thus: NF/NR ratio is average amount of neurofilament per cell was determined at 3 uM; value ranges from 95-105. It counts as functional.

Take `CC(=O)NC1C(O)CC(OCCCOCOCC(COCOCCCOC2(C(=O)[O-])CC(O)C(NC(C)=O)C([C@@H](O)[C@H](O)CO)O2)(COCOCCCOC2(C(=O)[O-])CC(O)C(NC(C)=O)C([C@@H](O)[C@H](O)CO)O2)CO[C@H]2CCC3(C)C(=CCC4[C@@H]3CCC3(C)[C@@H](C(C)CCCC(C)C)CC[C@@H]43)C2)(C(=O)[O-])OC1[C@@H](O)[C@H](O)CO.[Na+].[Na+].[Na+]` (some centres undefined): the Activity turned out to be 95% in experiment [1]; 95% in experiment [2]; 85% in [3]; 105% in [4]; 125% in experiment [5]. The Ratio was found to be 105 in experiment [6] and 125 in experiment [7].

Consider `CC(=O)NC1C(O)CC(OC2CC[C@@]3(C)C(=CCC4[C@@H]5CC[C@H]([C@@H](C)CCCC(C)C)[C@@]5(C)CC[C@@H]43)C2)(C(=O)[O-])OC1[C@@H](O)[C@H](O)CO.[Na+]` (some centres undefined), for which the Activity in experiment [1] worked out at 95%; in experiment [8] it was 75%; in [9], 95%; in experiment [10] it was 65%; in experiment [11] it was 95%; in experiment [12], 105%. Moreover, the Ratio was determined as 95 in experiment [13] and 105 in experiment [14].

In the case of `CC(=O)NC1C(O)CC(OCCCOCOC2CC[C@@]3(C)C(=CCC4[C@@H]5CC[C@H]([C@@H](C)CCCC(C)C)[C@@]5(C)CC[C@@H]43)C2)(C(=O)[O-])OC1[C@@H](O)[C@H](O)CO.[Na+]` (some centres undefined), the Activity in experiment [1] is given as 95%; in experiment [2], 95%; in experiment [15], 75%; in experiment [3] it was 75%; in [4] it was 105%; in [16], 115%. The results for the Ratio in [6] and in experiment [17] were 105 and 115, respectively.

Take `CCCCCCCCCCCCCCCCOC1(C(=O)[O-])CC(O)C(NC(C)=O)C([C@@H](O)[C@H](O)CO)O1.[Na+]` (some centres undefined): the Activity in experiment [1] was 95%; in experiment [2] it was 95%; in experiment [15] it was 75%; in [3], 75%; in experiment [4], 105%; in [12], 105%. The Ratio in experiment [6] and in experiment [14] was 105 in each case.

On to `CCCCCCCCCCCCCCCCOCOCCCO[C@]1(C(=O)O)C[C@@H](O)[C@@H](NC(C)=O)C([C@@H](O)[C@H](O)CO)O1` (some centres undefined), for which the Activity in [1] worked out at 95%; in experiment [2], 95%; in experiment [9], 95%; in experiment [11] it was 95%; in [12] it was 105%. The Ratio in experiment [13] is recorded as 95; in experiment [14], 105.

`CC(C)CCC[C@@H](C)[C@H]1CCC2C3CC=C4CC(C(C(=O)O)C(=O)O)CC[C@]4(C)C3CC[C@@]21C` (some centres undefined): the Activity in experiment [1], in experiment [2], in [11] and in [18] was 95% each time. Also, the Ratio in experiment [13] and in experiment [19] was 95 each time.
